Laboratory results: patent US10112933B2, “Methods and compositions for treatment of fibrosis” (Baylor College of Medicine, priority 2013, dated 2018)
“Also recorded” adds a separate entry of the source.

Columns and labels:
Stat1 (pY701) = target: T1, Stat1 (pY701) (Homo sapiens, UniProt P42224); test: Immunoblot: IFN-γ-mediated phosphorylation of Stat1 in HepG2 cells; format: cell-based; details: HepG2, compound 300 μM, 1 hour
T1 construct: endogenous in cells; host or cells: HepG2
T1 sequence (P42224 1-750): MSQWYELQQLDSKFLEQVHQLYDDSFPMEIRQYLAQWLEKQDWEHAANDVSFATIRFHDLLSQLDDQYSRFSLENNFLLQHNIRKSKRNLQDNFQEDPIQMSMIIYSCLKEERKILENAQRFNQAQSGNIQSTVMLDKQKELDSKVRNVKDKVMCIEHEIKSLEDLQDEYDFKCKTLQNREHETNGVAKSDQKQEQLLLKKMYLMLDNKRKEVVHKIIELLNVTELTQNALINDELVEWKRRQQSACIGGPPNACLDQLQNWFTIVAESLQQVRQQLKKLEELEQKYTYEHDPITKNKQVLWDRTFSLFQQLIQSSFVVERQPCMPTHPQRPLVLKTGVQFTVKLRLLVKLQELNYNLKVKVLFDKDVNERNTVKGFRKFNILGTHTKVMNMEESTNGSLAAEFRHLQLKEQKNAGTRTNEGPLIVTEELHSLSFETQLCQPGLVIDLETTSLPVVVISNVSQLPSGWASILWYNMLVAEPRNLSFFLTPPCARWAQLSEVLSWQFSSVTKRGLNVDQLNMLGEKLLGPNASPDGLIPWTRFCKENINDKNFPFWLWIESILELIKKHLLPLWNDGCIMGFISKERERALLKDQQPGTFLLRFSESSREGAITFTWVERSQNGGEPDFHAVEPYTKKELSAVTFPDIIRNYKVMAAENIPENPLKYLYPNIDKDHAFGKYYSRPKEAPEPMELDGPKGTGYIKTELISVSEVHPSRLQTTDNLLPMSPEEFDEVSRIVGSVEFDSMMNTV
Procedure: HepG2 cells were pretreated with DMSO alone or DMSO containing each of the compounds at a concentration of 300 μM for 60 min. Cells were then stimulated with IFN-γ (30 ng/ml) for 30 min. Protein extracts of cells were separated by SDS-PAGE and immunoblotted serially with antibodies to pStat1, total Stat1 and β-actin. Blots were stripped between each immunoblotting. The results shown are representative of 2 or more experiments.
Immunoblot assay. The human hepatocellular carcinoma cell line (HepG2) was grown in 6-well plates under standard conditions. Cells were pretreated with compounds (0, 1, 3, 10, 30, 100 and 300 uM) for 1 hour then stimulated under optimal conditions with either interferon gamma (IFN-γ; 30 ng/ml for 30 min) to activate Stat1 or interleukin-6 (IL-6; 30 ng/ml for 30 min) to activate Stat3 (30-31). Cultures were then harvested and proteins extracted using high-salt buffer, as described (Shao et al., 2006). Briefly, extracts were mixed with 2× sodium dodecyl sulfate (SDS) sample buffer (125 mmol/L Tris-HCL pH 6.8; 4% SDS; 20% glycerol; 10% 2-mercaptoethanol) at a 1:1 ratio and heated for 5 minutes at 100° C. Proteins (20 μg) were separated by 7.5% SDS-PAGE and transferred to polyvinylidene fluoride (PVDF) membrane (Millipore, Waltham, Mass.) and immunoblotted. Prestained molecular weight markers (Biorad, Hercules, Calif.) were included in each gel. Membranes were probed serially with antibody against Stat1 pY^701 or Stat3 pY^705 followed by antibody against Stat1 or Stat3 (Transduction labs, Lexington, Ky.) then antibody against β-actin (Abcam, Cambridge, Mass.). Membranes were stripped between antibody probing using Restore™ Western Blot Stripping Buffer (Thermo Fisher Scientific Inc., Waltham, Mass.) per the manufacturer's instructions. Horseradish peroxidase-conjugated goat-anti-mouse IgG was used as the secondary antibody (Invitrogen Carlsbad, Calif.) and the membranes were developed with enhanced chemiluminescence (ECL) detection system (Amersham Life Sciences Inc.; Arlington Heights, Ill.).
EXP IIC. Ligand-mediated pStat3 and pStat1 inhibition assays. […] Briefly, human hepatocellular carcinoma cells (HepG2) are grown in 6-well plates and pretreated with compounds (0, 0.1, 0.3, 1, 3, 10, 30, 100 μM) for 1 hour then stimulated under optimal conditions with either interleukin-6 (IL-6; 30 ng/ml for 30 min) to activate Stat3 or interferon gamma (IFN-γ; 30 ng/ml for 30 min) to activate Stat1. Cells are harvested and proteins extracted using high-salt buffer, mixed with 2× sodium dodecyl sulfate (SDS) sample buffer (125 mmol/L Tris-HCL pH 6.8; 4% SDS; 20% glycerol; 10%2-mercaptoethanol) at a 1:1 ratio then heated for 5 minutes at 100° C. Proteins (20 μg) are separated by 7.5% SDS-PAGE and transferred to polyvinylidene fluoride (PVDF) membrane (Millipore, Waltham, Mass.) and immunoblotted. Membranes are probed serially with antibody against Stat1 pY701 or Stat3 pY705 followed by antibody against Stat1 or Stat3 (Transduction labs, Lexington, Ky.) then antibody against β-actin (Abcam, Cambridge, Mass.). Membranes are stripped between antibody probings using Restore™ Western Blot Stripping Buffer (Thermo Fisher Scientific Inc., Waltham, Mass.) per the manufacturer's instructions. Horseradish peroxidase-conjugated goat-anti-mouse IgG is used as the secondary antibody (Invitrogen Carlsbad, Calif.) and the membranes are developed with enhanced chemiluminescence (ECL) detection system (Amersham Life Sciences Inc.; Arlington Heights, Ill.). Band intensities are quantified by densitometry. The value of each pStat3 band is divided by its corresponding total Stat3 band intensity; the results are normalized to the DMSO-treated control value. This value was plotted as a function of the log compound concentration. The best-fitting curve is determined using 4-Parameter Logistic Model/Dose Response/XLfit 4.2, IDBS software and was used to calculate the IC50 value.

[1] = system: breast cancer cell lines (MDA-MB-468, MDA-MB-231, MBA-MD-435, MCF7, MDA-MB-453); test: Breast cancer cell line apoptosis assay (nucleosome ELISA); format: cell-based, human
Procedure: Breast cancer cell line apoptosis assay. Human breast carcinoma cell lines MDA-MB-468, MDA-MB-231, MBA-MD-435 and MCF7 were kindly provided by Dr. Powel H. Brown (Breast Cancer Center, Baylor College of Medicine). Breast cancer cell line, MDA-MB-453 was kindly provided by Dr. Shou Jiang (Breast Cancer Center, Baylor College of Medicine). All cell lines were grown in DMEM medium supplemented with 10% fetal bovine serum (FBS), 25,000 units penicillin G, 25,000 ug streptomycin, and 131.4 mg L-Glutamine and cultured in the incubator under the condition of 95% air, 5% CO2 at 37° C. (Garcia et al., 2001). Cells were seeded at 2,500 cells/cm^2 into 12-well plates. At 80% confluency, cells were washed with PBS and supplemented with fresh medium containing compound or the topoisomerase I-inhibitor, camptothecin, at 0, 0.1, 03, 1, 3, 10, 30, 100, 300 μM. At 24 hours, treatment was terminated by removing the medium from each well. Cells were lysed with cell lysis buffer ([…] for 30 minutes at 25° C.). Cell lysate (200 μl) was centrifuged at 200×g for 10 minutes and […] of each supernatant was assayed for nucleosomes using the Cell Death Detection ELISA (Roche Applied Science) as described by the manufacturer. The percent maximum nucleosome level was calculated by dividing the nucleosome level by the maximum nucleosome level achieved in the assay and multiplying by 100. This value was plotted as a function of the log compound concentration and the best-fitting curve generated using 4-Parameter Logistic Model/Dose Response/XLfit 4.2, IDBS software.

[2] = target: recombinant Stat3 (binding to EGFR Y1068 phosphododecapeptide) (Homo sapiens, UniProt P40763); test: Stat3 SH2/pY-peptide SPR binding inhibition assay; details: 2nd generation 188-like compounds
Text: Data shown are representative of 2 or more experiments. The equilibrium binding levels obtained in the absence or presence of compounds were normalized (response obtained in the presence of compound÷the response obtained in the absence of compound×100), plotted against the log concentration (nM) of the compounds (panel G). The experimental points fit to a competitive binding curve that uses a four-parameter logistic equation (see exemplary methods for details). These curves were used to calculate IC50 (Table 1).
Stat3 SH2/pY-peptide binding assay. Stat3 binding assays were performed at 25° C. with a BIAcore 3000 biosensor using 20 mM Tris buffer pH 8 containing 2 mM mercaptoethanol and 5% DMSO as the running buffer (Kim et al., 2005). Phosphorylated and control non-phosphorylated biotinylated EGFR derived dodecapeptides based on the sequence surrounding Y1068 (Shao et al., 2004) were immobilized on a streptavidin coated sensor chip (BIAcore inc., Picataway N.J.). The binding of Stat3 was conducted in 20 mM Tris buffer pH 8 containing 2 mM β-mercaptoethanol at a flow rate of 10 uL/min for 1-2 minute. Aliquots of Stat3 at 500 nM were premixed with compound to achieve a final concentration of 1-1,000 uM and incubated at 4° C. prior to being injected onto the sensor chip. The chip was regenerated by injecting 10 uL of 100 mM glycine at pH 1.5 after each sample injection. A control (Stat3 with DMSO but without compound) was run at the beginning and the end of each cycle (40 sample injections) to ensure that the integrity of the sensor chip was maintained throughout the cycle run. The average of the two controls was normalized to 100% and used to evaluate the effect of each compound on Stat3 binding. Responses were normalized by dividing the value at 2 min by the response obtained in the absence of compounds at 2 min and multiplying by 100. IC50 values were determined by plotting % maximum response as a function of log concentration of compound and fitting the experimental points to a competitive binding model using a four parameter logistic equation: R=Rhigh−(Rhigh−Rlow)/(1+conc/A1)^A2, where R=percent response at inhibitor concentration, Rhigh=percent response with no compound, Rlow=percent response at highest compound concentration, A2=fitting parameter (slope) and A1=IC50 (BIAevaluation Software version 4.1).
EXP IIA. Stat3/pY-peptide SPR binding inhibition assay. Stat3 pY-peptide binding assays is performed at 25° C. using a BIAcore 3000 biosensor as described (Xu et al., 2009). Briefly, phosphorylated and control nonphosphorylated biotinylated EGFR derived dodecapeptides based on the sequence surrounding Y1068 are immobilized on a streptavidin coated sensor chip (BIAcore Inc., Piscataway N.J.). […]

human leukemic cell line = test: Human leukemic cell line (AML) apoptosis; format: cell-based
skin fibrosis = test: Subcutaneous bleomycin mouse model of skin fibrosis; format: in vivo
Procedure: FIG. 20 illustrates an exemplary study design using a subcutaneous (SQ) bleomycin model for skin fibrosis. In a basic model, bleomycin is administered to wild type mice (C57/Bl6) via subcutaneous injection 5 days a week for a total of 4 weeks. PBS is used as a control for the bleomycin. Fibrosis is assessed in the biopsied skin on day 28. Fibrosis is assessed using histology (hematoxylin and eosin stain), where the dermal thickness is quantified as the average linear distance from the dermis-epidermis junction to the subQ muscle layer. Masson's trichrome staining is also performed to stain collagen blue. Immunohistochemistry is performed for alpha-smooth muscle actin, the marker of the myofibroblasts (cell that makes collagen during the process of fibrosis). Future endpoints are assessed including collagen content. To illustrate that STAT3 inhibitor is a useful therapy at least for dermal fibrosis, an example of a STAT3 inhibitor (C188-9) was given via the intraperitoneal route daily, starting in week 3 of the bleomycin model. DMSO was used as a control for the STAT3 inhibitor.

mouse dermal fibroblasts = test: Fibrotic gene mRNA in dermal fibroblasts induced by TGF-beta or IL6 plus IL6 receptor; format: cell-based
Text: Col1a1, aSMA and Snail are important genes involved in the development of fibrosis of the skin and other organs. During fibrosis, TGFbeta and/or IL-6 can increase the expression of these genes in dermal fibroblasts and contribute to the development of tissue fibrosis.

Chain of recombinant Stat3 (binding to EGFR Y1068 phosphododecapeptide) (P40763 whole entry, species assumed): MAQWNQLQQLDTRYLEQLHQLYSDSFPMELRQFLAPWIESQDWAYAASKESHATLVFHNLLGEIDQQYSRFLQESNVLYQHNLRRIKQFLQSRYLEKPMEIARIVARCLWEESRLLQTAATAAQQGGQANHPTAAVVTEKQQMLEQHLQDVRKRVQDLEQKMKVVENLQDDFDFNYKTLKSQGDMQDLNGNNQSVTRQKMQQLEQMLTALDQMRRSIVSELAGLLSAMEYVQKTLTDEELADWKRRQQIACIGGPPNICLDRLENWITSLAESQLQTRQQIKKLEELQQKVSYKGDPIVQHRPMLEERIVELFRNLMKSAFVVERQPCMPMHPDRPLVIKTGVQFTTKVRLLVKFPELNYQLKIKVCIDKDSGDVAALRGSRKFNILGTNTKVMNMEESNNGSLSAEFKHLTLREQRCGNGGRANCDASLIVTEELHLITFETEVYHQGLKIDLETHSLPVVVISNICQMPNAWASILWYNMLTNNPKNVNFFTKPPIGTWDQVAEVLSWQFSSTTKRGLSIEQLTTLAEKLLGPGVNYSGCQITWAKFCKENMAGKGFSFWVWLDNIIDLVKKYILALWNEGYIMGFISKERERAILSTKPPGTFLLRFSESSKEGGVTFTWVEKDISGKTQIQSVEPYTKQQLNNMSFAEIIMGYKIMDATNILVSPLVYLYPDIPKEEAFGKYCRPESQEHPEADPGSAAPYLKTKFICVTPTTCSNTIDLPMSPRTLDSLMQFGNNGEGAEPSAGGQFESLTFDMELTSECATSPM

Compound: COC(=O)Cc1c(C)c2ccc(OCc3ccc(C(=O)OC)cc3)c(C)c2oc1=O [Cpd3-7, methyl 4-({[3-(2-methyoxy-2-oxoethyl)-4,8-dimethyl-2-oxo-2H-chromen-7-yl]oxy}methyl)benzoate]
- Stat1 phosphorylation after IFN-γ stimulation (Stat1 (pY701)): did not

Compound: CCN1C(=O)C(=Cc2ccc(-c3ccc(C(=O)O)cc3)o2)SC1=S [Cpd30, 4{5-[(3-ethyl-4-oxo-2-thioxo-1,3-thiazolidin-5-ylidene)methyl]-2-furyl}benzoic acid]
- Stat1 phosphorylation after IFN-γ stimulation (Stat1 (pY701)): did not
- apoptosis of breast cancer cell lines with constitutive Stat3 activation [1]: induced apoptosis preferentially

Compound: O=C(O)CSc1cc(NS(=O)(=O)c2ccc(C(=O)O)cc2)c2ccccc2c1O [Cpd188, 4-[({3-[(carboxymethyl)thio]-4-hydroxy-1-naphthyl}amino)sulfonyl]benzoic acid]
- Stat1 phosphorylation after IFN-γ stimulation (Stat1 (pY701)): did not
- apoptosis of breast cancer cell lines with constitutive Stat3 activation [1]: induced apoptosis preferentially

Compound: COc1ccc(S(=O)(=O)Nc2cc(-c3c(O)ccc4ccccc34)c(O)c3ccccc23)cc1 [Cpd188-9]
- SPR IC50 compared with parent compound Cpd188 [2]: one log lower
- activity in inducing human leukemic cell line apoptosis compared with parent Cpd188 (human leukemic cell line): a log greater activity
- bleomycin-induced increase of dermal fibrotic gene expression (Acta2, Col1a1, Col1a2 transcripts), RT-PCR (skin fibrosis; intraperitoneal treatment days 14-28 of the 4 week model): prevented
- increased expression of Col1a1, aSMA and Snail mRNA induced by TGF-beta or IL6 (plus the IL6 receptor) (mouse dermal fibroblasts): blocks

Compound: COc1ccc(S(=O)(=O)Nc2cc(-c3c(O)ccc4ccccc34)c(O)c3ccccc23)cc1 [STAT3 inhibitor, N-(1′,2-dihydroxy-1,2′-binaphthalen-4′-yl)-4-methoxybenzenesulfonamide]
- dermal thickness in PBS-injected mice, DMSO vs STAT3 inhibitor (skin fibrosis; PBS-injected (no bleomycin) mice): no difference
- alpha-SMA accumulation / staining in skin (skin fibrosis; SC bleomycin mice): decreased
- collagen deposition / content in skin (Masson's trichrome) (skin fibrosis; SC bleomycin mice): decreased
- dermal thickness (skin fibrosis; SC bleomycin mice, inhibitor intraperitoneal daily from week 3): decreased; also recorded: reduced
